# Laboratory results taken from PMC6556231 (Journal of medicinal chemistry, 2019).
# “Also recorded” adds a separate entry of the source.
# How the values were obtained:
# HepG2 cells = experiment: Drug toxicity to HepG2 cells; format: cell-based, human; conditions: 48 h, MTT
# [1] = Human liver microsomal Clint; format: in vitro ADME; conditions: for HLM Clint / microsomal CLint: human liver microsomes; for microsomal CLint: human, HLM Clint (μL/min/mg)
# [2] = Human plasma protein binding; format: in vitro ADME; conditions: equilibrium dialysis, 18 h, 37 °C
# Aqueous pH 7.4 = format: physicochemical; conditions: 0.1 M phosphate buffer pH 7.4, 25 °C, 20-24 h
# [3] = Preliminary toxicity study in mice; format: in vivo; conditions: 100 mg/kg orally
# [4] = tested on: Salmonella typhimurium strains; experiment: Ames fluctuation assay; format: cell-based; conditions: with and without rat liver S9 fraction
# Chemical stability = format: physicochemical
compound,measurement,setting,value
tert-Butyl methyl(2-((4-(4-(pyrazin-2-ylamino)quinolin-7-yl)phenyl)amino)ethyl)carbamate [6c],HepG2 TC50,HepG2 cells,8.0 µM
same,HLM Clint,[1],>300 µL/min/mg
same,Human PPB (%),[2],95%
same,Aq sol (μM) (thermodynamic solubility),Aqueous pH 7.4,3.0 µM
"CN1C[C@H]2C[C@@H]1CN2c1ncc(-c2ccc3c(Nc4cnccn4)ccnc3c2)cn1 [10b, 7-(2-((1R,4R)-5-Methyl-2,5-diazabicyclo[2.2.1]heptan-2-yl)pyrimidin-5-yl)-N-(pyrazin-2-yl)quinolin-4-amine]",Increase in metabolic stability compared to 1,[1],4 fold
"Cc1c(-c2cnc(N3CCN(C)CC3)nc2)ccc2c(Nc3cnccn3)ccnc12 [9b, 8-Methyl-7-(2-(4-methylpiperazin-1-yl)pyrimidin-5-yl)-N-(pyrazin-2-yl)quinolin-4-amine]",microsomal CLint,[1],120 µL/min/mg
"CN1C[C@@H]2C[C@H]1CN2c1ncc(-c2ccc3c(Nc4cnccn4)ccnc3c2)cn1 [10a, 7-(2-((1S,4S)-5-Methyl-2,5-diazabicyclo[2.2.1]heptan-2-yl)pyrimidin-5-yl)-N-(pyrazin-2-yl)quinolin-4-amine]",Increase in metabolic stability compared to 1,[1],4 fold
"CN1CCN(Nc2ncc(-c3ccc4c(Nc5cnccn5)ccnc4c3)cn2)CC1 [16f, 7-(2-((4-Methylpiperazin-1-yl)amino)pyrimidin-5-yl)-N-(pyrazin-2-yl)quinolin-4-amine]",Increase in metabolic stability compared to 1,[1],10 fold
same,HLM Clint,[1],16 µL/min/mg
"Cc1cc2c(Nc3cnccn3)ccnc2cc1-c1cnc(N2CCN(C)CC2)nc1 [9a, 6-Methyl-7-(2-(4-methylpiperazin-1-yl)pyrimidin-5-yl)-N-(pyrazin-2-yl)quinolin-4-amine]",microsomal CLint,[1],130 µL/min/mg
"CN1CCCN(c2ncc(-c3ccc4/c(=N/c5cnccn5)ccn(C)c4c3)cn2)CC1 [22a, (E)-1-Methyl-7-(2-(4-methyl-1,4-diazepan-1-yl)pyrimidin-5-yl)-N-(pyrazin-2-yl)quinolin-4(1H)-imine]",microsomal CLint,[1],22 µL/min/mg
same,Adverse effects in preliminary toxicity study,[3],no adverse effects
same,Genotoxicity,[4],"Neither 22a or its metabolites were found to be genotoxic; also recorded: neither it, nor its metabolites, are genotoxic"
same,Hydrolytic stability,Chemical stability; acidic and basic conditions,hydrolytic stability was confirmed under both acidic and basic conditions
same,Stability to hard and soft nucleophile,Chemical stability; glutathione and cyanide,stable in the presence of both glutathione and cyanide
